# Reference: paper PMC10178848, “Modulating fast skeletal muscle contraction protects skeletal muscle in animal models of Duchenne muscular dystrophy” (The Journal of Clinical Investigation, 2023)
# Test system: mdx mouse EDL muscle
# Assay: Phosphoprotein array analysis (Cell Signaling Phospho Antibody Array)
# Protocol: mdx mouse EDL muscle was prepared for ex vivo analysis as described (n = 5). Muscles were incubated for 1 hour with DMSO or EDG-5506 (5 μM) and then flash frozen in liquid nitrogen. Tissue preparation and analysis were performed as recommended by the manufacturer (Cell Signaling Phospho Antibody Array, Full Moon Biosystems).
smiles,measurement,setting,value
O=c1ccc(-c2cnc(OCC(F)(F)F)nc2)nn1Cc1cncc(F)c1 [EDG-5506],Fold Change T/C: PPAR-gamma (Ab-112),"5 μM, 1 hour",1.49
same,Fold Change T/C: PPAR-gamma (Phospho-Ser112),"5 μM, 1 hour",1.26
same,Fold Change T/C: PTEN (Ab-380),"5 μM, 1 hour",1.13
same,Fold Change T/C: Raf1 (Ab-43),"5 μM, 1 hour",0.90
same,Fold Change T/C: Rb (Ab-807),"5 μM, 1 hour",2.11
same,Fold Change T/C: Rb (Phospho-Ser807),"5 μM, 1 hour",0.91
same,Fold Change T/C: RelB (Phospho-Ser552),"5 μM, 1 hour",0.76
same,Fold Change T/C: SAPK/JNK (Phospho-Tyr185),"5 μM, 1 hour",0.84
same,Fold Change T/C: SHP-2 (Phospho-Tyr542),"5 μM, 1 hour",0.91
same,Fold Change T/C: SRF (Ab-99),"5 μM, 1 hour",1.97
same,Fold Change T/C: STAT3 (Ab-705),"5 μM, 1 hour",1.05
same,Fold Change T/C: STAT3 (Phospho-Tyr705),"5 μM, 1 hour",0.92
same,Fold Change T/C: STAT4 (Phospho-Tyr693),"5 μM, 1 hour",1.04
same,Fold Change T/C: STAT5A (Ab-780),"5 μM, 1 hour",0.86
same,Fold Change T/C: STAT6 (Ab-645),"5 μM, 1 hour",1.12
same,Fold Change T/C: STAT6 (Phospho-Thr645),"5 μM, 1 hour",0.89
same,Fold Change T/C: SYK (Ab-525),"5 μM, 1 hour",0.99
same,Fold Change T/C: SYK (Phospho-Tyr348),"5 μM, 1 hour",0.91
same,Fold Change T/C: Shc (Ab-349),"5 μM, 1 hour",0.62
same,Fold Change T/C: Smad1 (Ab-465),"5 μM, 1 hour",0.82
same,Fold Change T/C: Smad1 (Phospho-Ser187),"5 μM, 1 hour",1.60
same,Fold Change T/C: Smad2 (Ab-255),"5 μM, 1 hour",2.57
same,Fold Change T/C: Smad2 (Phospho-Ser467),"5 μM, 1 hour",1.00
same,Fold Change T/C: Smad2/3 (Phospho-Thr8),"5 μM, 1 hour",1.25
same,Fold Change T/C: Smad3 (Ab-425),"5 μM, 1 hour",0.52
same,Fold Change T/C: Smad3 (Phospho-Ser213),"5 μM, 1 hour",1.26
same,Fold Change T/C: Src (Ab-418),"5 μM, 1 hour",1.70
same,Fold Change T/C: Src (Phospho-Tyr418),"5 μM, 1 hour",0.77
same,Fold Change T/C: TGFBR2 (Ab-250),"5 μM, 1 hour",0.90
same,Fold Change T/C: Tau (Ab-235),"5 μM, 1 hour",1.98
same,Fold Change T/C: Tau (Phospho-Ser396),"5 μM, 1 hour",0.90
same,Fold Change T/C: Trk B (Ab-515),"5 μM, 1 hour",1.53
same,Fold Change T/C: Tubulin-b,"5 μM, 1 hour",1.09
same,Fold Change T/C: VASP (Ab-157),"5 μM, 1 hour",1.26
same,Fold Change T/C: VEGFR2 (Ab-1214),"5 μM, 1 hour",1.07
same,Fold Change T/C: VEGFR2 (Phospho-Tyr1175),"5 μM, 1 hour",0.84
same,Fold Change T/C: Zap-70 (Ab-319),"5 μM, 1 hour",1.12
same,Fold Change T/C: Zap-70 (Phospho-Tyr319),"5 μM, 1 hour",1.04
same,Fold Change T/C: c-Abl (Ab-412),"5 μM, 1 hour",0.93
same,Fold Change T/C: c-Jun (Ab-243),"5 μM, 1 hour",1.03
same,Fold Change T/C: c-Jun (Phospho-Ser73),"5 μM, 1 hour",0.91
same,Fold Change T/C: eEF2K (Ab-366),"5 μM, 1 hour",2.10
same,Fold Change T/C: eIF2A (Ab-51),"5 μM, 1 hour",0.86
same,Fold Change T/C: eNOS (Ab-1179),"5 μM, 1 hour",0.92
same,Fold Change T/C: p44/42 MAP Kinase (Phospho-Tyr204),"5 μM, 1 hour",0.88
same,Fold Change T/C: p53 (Ab-315),"5 μM, 1 hour",1.69
same,Fold Change T/C: p53 (Phospho-Ser15),"5 μM, 1 hour",0.20
same,"changes in implicated signaling pathways (Akt, IGF1, LTBP4/TGF-β)","5 μM, 1 hour",no consistent changes in implicated pathways
same,Average Signal of Replicate Spots: 4E-BP1 (Phospho-Thr45),4000031744 (T),3952
same,Average Signal of Replicate Spots: 14-3-3 theta/tau (Phospho-Ser232),4000031744 (T),1343
same,Average Signal of Replicate Spots: ACC1 (Phospho-Ser80),4000031744 (T),1068
same,Average Signal of Replicate Spots: AMPKbeta1 (Phospho-Ser182),4000031744 (T),1111
same,Average Signal of Replicate Spots: B-RAF (Phospho-Ser446),4000031744 (T),1461
same,Average Signal of Replicate Spots: BAX (Phospho-Thr167),4000031744 (T),923
same,Average Signal of Replicate Spots: BCL-XL (Phospho-Ser62),4000031744 (T),3298
same,Average Signal of Replicate Spots: BLNK (Phospho-Tyr96),4000031744 (T),811
same,Average Signal of Replicate Spots: CBL (Phospho-Tyr700),4000031744 (T),1571
same,Average Signal of Replicate Spots: CDK1/CDC2 (Phospho-Tyr15),4000031744 (T),1071
same,Average Signal of Replicate Spots: CREB (Phospho-Ser133),4000031744 (T),971
same,Average Signal of Replicate Spots: CaMK2-beta/gamma/delta (Phospho-Thr287),4000031744 (T),1442
same,Average Signal of Replicate Spots: CaMK2A (Phospho-Thr286),4000031744 (T),1017
same,Average Signal of Replicate Spots: Caspase 8 (Phospho-Ser347),4000031744 (T),1275
same,Average Signal of Replicate Spots: Caspase 9 (Phospho-Ser196),4000031744 (T),3581
same,Average Signal of Replicate Spots: Catenin beta (Phospho-Thr41/Ser45),4000031744 (T),1080
same,Average Signal of Replicate Spots: Chk2 (Phospho-Thr68),4000031744 (T),787
same,Average Signal of Replicate Spots: Cyclin D1 (Phospho-Thr286),4000031744 (T),2969
same,Average Signal of Replicate Spots: Cyclin E1 (Phospho-Thr77),4000031744 (T),1889
same,Average Signal of Replicate Spots: DARPP-32 (Phospho-Thr34),4000031744 (T),1112
same,Average Signal of Replicate Spots: EEF2 (Phospho-Thr56),4000031744 (T),1593
same,Average Signal of Replicate Spots: FADD (Phospho-Ser194),4000031744 (T),2520
same,Average Signal of Replicate Spots: FAK (Phospho-Ser910),4000031744 (T),1946
same,Average Signal of Replicate Spots: FGFR1 (Phospho-Tyr654),4000031744 (T),2920
same,Average Signal of Replicate Spots: GRK2 (Phospho-Ser29),4000031744 (T),1817
same,Average Signal of Replicate Spots: GSK3 alpha/beta (Phospho-Tyr216/279),4000031744 (T),1223
same,Average Signal of Replicate Spots: Gab2 (Phospho-Tyr643),4000031744 (T),5234
same,Average Signal of Replicate Spots: HDAC1 (Phospho-Ser421),4000031744 (T),1842
same,Average Signal of Replicate Spots: HDAC2 (Phospho-Ser394),4000031744 (T),1737
same,Average Signal of Replicate Spots: HSP90B (Phospho-Ser226),4000031744 (T),2514
same,Average Signal of Replicate Spots: IKK-beta (Phospho-Tyr188),4000031744 (T),1332
same,Average Signal of Replicate Spots: IKK-beta (Phospho-Tyr199),4000031744 (T),1363
same,Average Signal of Replicate Spots: IKK-gamma (Phospho-Ser31),4000031744 (T),1172
same,Average Signal of Replicate Spots: IL-4R/CD124 (Phospho-Tyr497),4000031744 (T),1616
same,Average Signal of Replicate Spots: IL-10R-alpha (Phospho-Tyr496),4000031744 (T),1513
same,Average Signal of Replicate Spots: IkB-alpha (Phospho-Ser32/36),4000031744 (T),10513
same,Average Signal of Replicate Spots: Integrin beta-3 (Phospho-Tyr773),4000031744 (T),1072
same,Average Signal of Replicate Spots: JunB (Phospho-Ser259),4000031744 (T),1085
same,Average Signal of Replicate Spots: LYN (Phospho-Tyr507),4000031744 (T),1395
same,Average Signal of Replicate Spots: Lamin A/C (Phospho-Ser392),4000031744 (T),969
same,Average Signal of Replicate Spots: MEK1 (Phospho-Ser217),4000031744 (T),790
same,Average Signal of Replicate Spots: NFkB-p65 (Phospho-Ser311),4000031744 (T),1154
same,Average Signal of Replicate Spots: NFkB-p100/p52 (Phospho-Ser865),4000031744 (T),1360
same,Average Signal of Replicate Spots: P38 MAPK (Phospho-Thr180/Tyr182),4000031744 (T),2391
same,Average Signal of Replicate Spots: P70S6K (Phospho-Ser424),4000031744 (T),1169
same,Average Signal of Replicate Spots: P90RSK (Phospho-Thr359/Ser363),4000031744 (T),1665
same,Average Signal of Replicate Spots: PDK1 (Phospho-Ser241),4000031744 (T),2037
same,Average Signal of Replicate Spots: PLCG1 (Phospho-Tyr783),4000031744 (T),8981
same,Average Signal of Replicate Spots: PLK1 (Phospho-Thr210),4000031744 (T),732
same,Average Signal of Replicate Spots: PP2A-alpha (Phospho-Tyr307),4000031744 (T),1166
same,Average Signal of Replicate Spots: PPAR-gamma (Phospho-Ser112),4000031744 (T),1480
same,Average Signal of Replicate Spots: Rb (Phospho-Ser807),4000031744 (T),1194
same,Average Signal of Replicate Spots: RelB (Phospho-Ser552),4000031744 (T),3212
same,Average Signal of Replicate Spots: SAPK/JNK (Phospho-Tyr185),4000031744 (T),1041
same,Average Signal of Replicate Spots: SHP-2 (Phospho-Tyr542),4000031744 (T),1268
same,Average Signal of Replicate Spots: STAT3 (Phospho-Tyr705),4000031744 (T),1079
same,Average Signal of Replicate Spots: STAT4 (Phospho-Tyr693),4000031744 (T),52519
same,Average Signal of Replicate Spots: STAT6 (Phospho-Thr645),4000031744 (T),1124
same,Average Signal of Replicate Spots: SYK (Phospho-Tyr348),4000031744 (T),1249
same,Average Signal of Replicate Spots: Smad1 (Phospho-Ser187),4000031744 (T),2057
same,Average Signal of Replicate Spots: Smad2 (Phospho-Ser467),4000031744 (T),1265
same,Average Signal of Replicate Spots: Smad2/3 (Phospho-Thr8),4000031744 (T),2539
same,Average Signal of Replicate Spots: Smad3 (Phospho-Ser213),4000031744 (T),1879
same,Average Signal of Replicate Spots: Src (Phospho-Tyr418),4000031744 (T),10867
same,Average Signal of Replicate Spots: Tau (Phospho-Ser396),4000031744 (T),1057
same,Average Signal of Replicate Spots: VEGFR2 (Phospho-Tyr1175),4000031744 (T),1051
same,Average Signal of Replicate Spots: Zap-70 (Phospho-Tyr319),4000031744 (T),1504
same,Average Signal of Replicate Spots: c-Jun (Phospho-Ser73),4000031744 (T),1180
same,Average Signal of Replicate Spots: p44/42 MAP Kinase (Phospho-Tyr204),4000031744 (T),1035
same,Average Signal of Replicate Spots: p53 (Phospho-Ser15),4000031744 (T),1903
same,Data Normalized to Median Signal: 4E-BP1 (Phospho-Thr45),4000031744 (T),3.29
same,Data Normalized to Median Signal: 14-3-3 theta/tau (Phospho-Ser232),4000031744 (T),1.12
same,Data Normalized to Median Signal: ACC1 (Phospho-Ser80),4000031744 (T),0.89
same,Data Normalized to Median Signal: AMPKbeta1 (Phospho-Ser182),4000031744 (T),0.93
same,Data Normalized to Median Signal: B-RAF (Phospho-Ser446),4000031744 (T),1.22
same,Data Normalized to Median Signal: BCL-XL (Phospho-Ser62),4000031744 (T),2.75
same,Data Normalized to Median Signal: BLNK (Phospho-Tyr96),4000031744 (T),0.68
same,Data Normalized to Median Signal: CBL (Phospho-Tyr700),4000031744 (T),1.31
